This passage reports IC50 results from ChEMBL document CHEMBL1125973, “Tricyclic quinoxalines as ligands for the strychnine-insensitive glycine site” (Bioorg Med Chem Lett, 1991).

Assay [1] has as its target Glutamate receptor ionotropic AMPA (Homo sapiens, UniProt P42261+P42262+P42263+P48058). In words: Compound was evaluated for its binding affinity towards Ionotropic glutamate receptor AMPA in presence of [3H]- AMPA. Type of assay: protein-complex assay.
Assay [2] has as its target Glutamate receptor ionotropic, NMDA 1 (Rattus norvegicus, UniProt P35439). As to the kind of experiment: Compound was evaluated for its binding affinity towards strychnine - insensitive glycine site of NMDA receptor in presence of [3H]- Gly.

For orientation: IC50 means the concentration that inhibits the measured activity by half. With `Oc1nc2cc(Cl)c(Cl)cc2n2nnnc12`, the IC50 in assay [1] is over 100 µM; in assay [2], 77 µM.

Consider `Oc1nc2cc(Cl)c(Cl)cc2n2cnnc12`, for which the IC50 in assay [1] is 8 µM; in assay [2] it was 7 µM.

On to `CCCCn1c(=O)c(=O)[nH]c2cc(Cl)c(Cl)cc21`, for which, in assay [2], the IC50 is over 100 µM.

With `CCn1c(=O)c(=O)[nH]c2cc(Cl)c(Cl)cc21`, the IC50 turned out to be 21 µM in assay [1] and 96 µM in assay [2].

Turning to `O=c1[nH]c2ccccc2n2nnnc12`, the IC50 in assay [2] is over 100 µM.

As for `Oc1nc2cc(Cl)c(Cl)cc2n2ccnc12`, the values for the half-inhibitory concentration (IC50) in assay [1] and in assay [2] were 7 µM and 6 µM, respectively.

Consider `Cn1c(=O)c(=O)[nH]c2cc(Cl)c(Cl)cc21`, for which the IC50 in assay [1] was 36 µM; in assay [2], 17 µM.

As for `O=c1[nH]c2ccccc2n2ccnc12`, the IC50 in assay [2] was over 100 µM.

For `Oc1nc2cc(Cl)c(Cl)cc2nc1O` [2,3-DIHYDROXY-6,7-DICHLOROQUINOXALINE], the IC50 was 27 µM in assay [1] and 4 µM in assay [2].
